Assay results published in patent publication US20260042731A1, “(2,4-DICHLOROPHENOXY)ACETIC ACID ANALOGS” (CORTEVA AGRISCIENCE LLC, priority 2022, published 2026).
Several values for one entry are separate records, joined by “and”; a condition that tells them apart may be missing. Equal entries are not always repeated. Where two headings read alike, the source gives them in different places.

Tests used:
[1] = tested on: Velvetleaf (ABUTH); test: Greenhouse post-emergence mixture trials, percent visual control; type: in vivo; settings: Trial Bridge 2, ABUTH, 21 DAA, compound 0 g ae/ha
[2] = tested on: Horseweed (ERICA); test: as above; type: in vivo; settings: 21 DAA
[3] = tested on: Tall Waterhemp (AMATA); test: as above; type: in vivo; settings: Trial Bridge 2, 21 DAA
[4] = tested on: Common Lambsquarters (CHEAL); test: as above; type: in vivo; settings: CHEAL, 21 DAA
[5] = tested on: Corn (ZEAMX); test: as above; type: in vivo; settings: Trial Bridge 2, ZEAMX, 21 DAA
[6] = tested on: Abutilon theophrasti (ABUTH), velvetleaf; test: Postemergence herbicide evaluation, growth of Abutilon theophrasti (ABUTH); type: in vivo; settings: for AVE. ABUTH, percent reduction in plant size relative to the untreated control: 21 DAA; for pest or weed control at 280 g/ha / pest or weed control at 560 g/ha: Abutilon theophrasti, post-emergence, percent reduction in plant size relative to untreated control, read-out: AVE. ABUTH
[7] = tested on: Amaranthus rudis (AMATA), tall water hemp; test: Postemergence herbicide evaluation, growth of Amaranthus rudis (AMATA); type: in vivo; settings: for Ave. AMATA, percent reduction in plant size relative to the untreated control: 21 DAA; for pest or weed control at 280 g/ha / pest or weed control at 560 g/ha: Amaranthus tuberculatus, post-emergence, percent reduction in plant size relative to untreated control, read-out: Ave. AMATA
[8] = tested on: Chenopodium album (CHEAL), common lambsquarters; test: Postemergence herbicide evaluation, growth of Chenopodium album (CHEAL); type: in vivo; settings: for Ave. CHEAL, percent reduction in plant size relative to the untreated control: 21 DAA; for pest or weed control at 280 g/ha / pest or weed control at 560 g/ha: Chenopodium album, post-emergence, percent reduction in plant size relative to untreated control, read-out: Ave. CHEAL
[9] = Volatility of compounds measured by thermogravimetric analysis (TGA); type: physicochemical
[10] = tested on: ABUTH, AMATA, AMBEL, CHEAL, ERICA weeds; test: Postemergence herbicide evaluation, overall average % weed control across ABUTH, AMATA, AMBEL, CHEAL, ERICA; type: in vivo; settings: 21 DAA
Text: For example, the pesticidal activity may include herbicidal activity.

[11] = tested on: Ambrosia artemisiifolia (AMBEL), common ragweed; test: Postemergence herbicide evaluation, growth of Ambrosia artemisiifolia (AMBEL); type: in vivo; settings: for AVE. AMBEL, percent reduction in plant size relative to the untreated control: 21 DAA; for pest or weed control at 280 g/ha / pest or weed control at 560 g/ha: Ambrosia artemisiifolia, post-emergence, percent reduction in plant size relative to untreated control, read-out: AVE. AMBEL
[12] = tested on: glyphosate resistant Conyza canadensis (L.) (ERICA), horseweed; test: Postemergence herbicide evaluation, growth of Conyza canadensis (ERICA); type: in vivo; settings: for Ave. ERICA, percent reduction in plant size relative to the untreated control: 21 DAA; for pest or weed control at 280 g/ha / pest or weed control at 560 g/ha: Erigeron canadensis, post-emergence, percent reduction in plant size relative to untreated control, read-out: Ave. ERICA
[13] = tested on: weeds (ABUTH, AMATA, AMBEL, CHEAL, ERICA); test: Postemergence herbicide evaluation, overall average % weed control across ABUTH, AMATA, AMBEL, CHEAL, ERICA; type: in vivo; settings: post-emergence, average over the five weeds, read-out: Overall Ave % Weed Control; for pest or weed control at 280 g/ha: 280 g ae/ha; for pest or weed control at 560 g/ha: 560 g ae/ha
[14] = Trial Bridge 2, Trifludimoxazin 25 g ai or ae/ha alone (B2 rate 0)
[15] = Trial Bridge 2, Trifludimoxazin 50 g ai or ae/ha alone (B2 rate 0)
[16] = Trifludimoxazin 12.5 g ai or ae/ha alone (B2 rate 0)
[17] = Trifludimoxazin 25 g ai or ae/ha alone (B2 rate 0)
[18] = Trifludimoxazin 50 g ai or ae/ha alone (B2 rate 0)

C#CCN1C(=O)C(F)(F)Oc2cc(F)c(-n3c(=O)n(C)c(=S)n(C)c3=O)cc21 [Trifludimoxazin, trifludimoxazin]
% Control ([1]; Trifludimoxazin alone 12.5 g ai or ae/ha): 100%
% Control ([1]; Trifludimoxazin alone 25 g ai or ae/ha): 100%
% Control ([1]; Trifludimoxazin alone 50 g ai or ae/ha): 100%
% Control [2, 14]: 25% and 30%
% Control [2, 15]: 30% and 25%
% Control [3, 16]: 100%
% Control [3, 17]: 100%
% Control [3, 18]: 100%
% Control ([4]; Trial Bridge 2, Trifludimoxazin 12.5 g ai or ae/ha alone (B2 rate 0)): 100%
% Control [4, 14]: 100%
% Control [4, 15]: 100%
% Control [5, 16]: 5% and 10%
% Control [5, 17]: 15% and 5% and 10%
% Control [5, 18]: 15% and 20% and 10%

N/C(Cc1ccccc1)=N\OC(=O)COc1ccc(Cl)cc1Cl [Compound A17, N′-(2-(2,4-Dichlorophenoxy)acetoxy)-2-phenylacetimidamide]
AVE. ABUTH, percent reduction in plant size relative to the untreated control ([6]; 280 g ae/ha): 65%
AVE. ABUTH, percent reduction in plant size relative to the untreated control ([6]; 560 g ae/ha): 83%
pest or weed control at 280 g/ha ([6]; 168 h, 280 g ae/ha, 7 DAA): 48%
pest or weed control at 560 g/ha ([6]; 168 h, 560 g ae/ha, 7 DAA): 68%
pest or weed control at 280 g/ha ([6]; 336 h, 280 g ae/ha, 14 DAA): 65%
pest or weed control at 560 g/ha ([6]; 336 h, 560 g ae/ha, 14 DAA): 80%
Ave. AMATA, percent reduction in plant size relative to the untreated control ([7]; 280 g ae/ha): 83%
Ave. AMATA, percent reduction in plant size relative to the untreated control ([7]; 560 g ae/ha): 89%
pest or weed control at 280 g/ha ([7]; 168 h, 280 g ae/ha, 7 DAA): 73%
pest or weed control at 560 g/ha ([7]; 168 h, 560 g ae/ha, 7 DAA): 70%
pest or weed control at 280 g/ha ([7]; 336 h, 280 g ae/ha, 14 DAA): 78%
pest or weed control at 560 g/ha ([7]; 336 h, 560 g ae/ha, 14 DAA): 80%
Ave. CHEAL, percent reduction in plant size relative to the untreated control ([8]; 280 g ae/ha): 85%
Ave. CHEAL, percent reduction in plant size relative to the untreated control ([8]; 560 g ae/ha): 90%
pest or weed control at 280 g/ha ([8]; 168 h, 280 g ae/ha, 7 DAA): 70%
pest or weed control at 560 g/ha ([8]; 168 h, 560 g ae/ha, 7 DAA): 68%
pest or weed control at 280 g/ha ([8]; 336 h, 280 g ae/ha, 14 DAA): 78%
pest or weed control at 560 g/ha ([8]; 336 h, 560 g ae/ha, 14 DAA): 85%
TGA Data (rate of weight loss, volatility) [9]: 4.1 µg/min
Overall Ave % Weed Control ([10]; 280 g ae/ha): 84%
Overall Ave % Weed Control ([10]; 560 g ae/ha): 91%
AVE. AMBEL, percent reduction in plant size relative to the untreated control ([11]; 280 g ae/ha): 92%
AVE. AMBEL, percent reduction in plant size relative to the untreated control ([11]; 560 g ae/ha): 99%
pest or weed control at 280 g/ha ([11]; 168 h, 280 g ae/ha, 7 DAA): 65%
pest or weed control at 560 g/ha ([11]; 168 h, 560 g ae/ha, 7 DAA): 80%
pest or weed control at 280 g/ha ([11]; 336 h, 280 g ae/ha, 14 DAA): 86%
pest or weed control at 560 g/ha ([11]; 336 h, 560 g ae/ha, 14 DAA): 96%
Ave. ERICA, percent reduction in plant size relative to the untreated control ([12]; 280 g ae/ha): 97%
Ave. ERICA, percent reduction in plant size relative to the untreated control ([12]; 560 g ae/ha): 94%
pest or weed control at 280 g/ha ([12]; 168 h, 280 g ae/ha, 7 DAA): 65%
pest or weed control at 560 g/ha ([12]; 168 h, 560 g ae/ha, 7 DAA): 65%
pest or weed control at 280 g/ha ([12]; 336 h, 280 g ae/ha, 14 DAA): 85%
pest or weed control at 560 g/ha ([12]; 336 h, 560 g ae/ha, 14 DAA): 83%
pest or weed control at 280 g/ha ([13]; 168 h, 7 DAA): 64%
pest or weed control at 560 g/ha ([13]; 168 h, 7 DAA): 70%
pest or weed control at 280 g/ha ([13]; 336 h, 14 DAA): 78%
pest or weed control at 560 g/ha ([13]; 336 h, 14 DAA): 85%
